# Measured values: patent US9029346B1, “Irreversible inhibitors of DNA polymerase beta” (The Johns Hopkins University, priority 2013, dated 2015)
# Experiments:
# Pol β = Pol β (Homo sapiens, UniProt P06746); assay type: biochemical
# Description: It is worth noting that the well should be full to obtain accurate fluorescence data (approximately 380 μL). […] To determine the polymerase activity in the presence of each inhibitor, a solution of 13 (3.8 μL, 5 μM) and dTTP (3.8 μL, 10 mM) were also added (to make final [13]=50 nM and 100 μM of dTTP). The plates were immediately placed in the microtiter plate reader and the measurements were recorded.
# It is worth noting that the well should be full in order to get accurate fluorescence data (approximately 380 μL). The solutions of inhibitors (40×) in acetonitrile obtained after pentenyl deprotection (10 μL) were transferred to the wells containing Pol β and incubated for 20 min. To determine the polymerase activity of enzyme in the presence of each inhibitor, solutions of ternary complex 13 (3.8 μL, 5 μM) and dTTP (3.8 μL, 10 mM) were also added (to make final 50 nM of 13 and 100 μM of dTTP). The plates were placed immediately in the microtiter plate reader Cary Eclipse Varian and the measurements started.
# The inhibitor solution (40×, 10 μL) was added to the first well and preincubated for 20 min. At this time, the same portion of inhibitor was added to the second well. […] Once the inhibitor was added to the fifth well, solutions of ternary complex 13 (3.8 pit, 5 μM) and dTTP (3.8 μL, 10 mM) were also added and the fluorescence measurement was started immediately.
# [1] = tested on: Klenow fragment of DNA polymerase 1; assay: Klenow exo- strand displacement synthesis fluorescence assay (selectivity); assay type: biochemical, E. coli; details: 10 μM, same conditions as Pol β, FIG. 9
# Description: […]. The volume of the solution in each well is approximately 400 μL. Pol β (final concentration, 10 nM) or Klenow exo-(final concentration 5 nM) is added and the measurement of the fluorescence is started immediately.
# More than one dozen polymerases exist in a human cell. Because there is not access to each of these, the Klenow fragment of DNA polymerase 1 from E. coli was used as a primitive test of the inhibitor's (3a) selectivity. […]. However, the efficacy of the 1,4-dicarbonyl containing inhibitor (1a) was compromised by thiols, presumably due to nucleophilic addition (FIG. 10). […]
# [2] = tested on: DU145 prostate cancer cells; assay type: cell-based; details: for DU145 cells surviving treatment: 40 μM, FIG. 13A
# Description: DU 145 cells were obtained from the American Type Culture Collection (ATCC, HTB-81, Manassas, Va.) and maintained in RPMI 1640 culture medium (Sigma-Aldrich R8758, St. Louis, Mo.), supplemented with 10% fetal bovine serum (Sigma-Aldrich F6178, St. Louis, Mo.). Cultures were grown at 37° C. in a humidified atmosphere of 5% carbon dioxide without any antibiotics and subcultured when they reached confluence. For clonogenic survival analysis, the appropriate number of cells were grown in standard 6-well tissue culture dishes in the growth media (2 mL per well). After 2 days, the cells were treated with Pol β inhibitors (3a or 18) by addition of sterile stock solution in water directly to the growth media to the desired final concentrations. Cells were treated similarly with methyl methanesulfonate (MMS, Sigma-Aldrich, St. Louis, Mo.). For combined treatments, 18 was added to the cells first followed by MMS. The compounds remained present throughout the entire assay. Two weeks after the treatment, the cells were fixed and stained with 0.2% solution of crystal violet in 50% methanol. Colonies with ≧50 cells were then counted. All treatments were carried out in triplicate.
# […]. Consequently, DU145 cell survival was measured as a function of MMS concentration, without and with 18 at a concentration (20 μM) where the proinhibitor itself results in approximately 45% cell death. […] […].
# [3] = tested on: DU145 lysate lyase activity; assay: Lyase activity of DU145 cell extracts (lysates) on 3′-32P-15
# Description: The aliquots were kept on ice for 1 h before mixing with loading buffer (5 μL). The samples were analyzed by 20% denaturing PAGE and quantified using a phosphorimager.
# Cells were harvested by mild trypsinzation. The cells were then washed three times with phosphate buffered saline. Cell pellets were suspended in 1× Passive Lysis Buffer (PBL, Promega Corporation, E1941, Madison, Wis.) at concentration of 1×10^7 cells per mL and frozen in aliquots at −80° C. Protein concentrations were determined by Bio-Rad protein assay dye (Bio-Rad, 500-0006, Hercules, Calif.) according to the manufacturer's protocol and using bovine serum albumin as a standard.
# Pol β lyase activity = Pol β lyase activity (Homo sapiens, UniProt P06746); assay: Pol β lyase (dRPase) activity on 3′-32P-15 by gel electrophoresis
# Description: The ability of 1a to inhibit Pol β's dRPase activity was examined using 3′-^32P-15 in which the oligonucleotide containing dRP was labeled.
# The DNA substrate was added to the reaction following preincubation of 1a with Pol β and subsequent 100-fold dilution. The lyase reaction was monitored by gel electrophoresis.
# [4] = tested on: mouse embryonic fibroblast cell lysates lyase activity; assay: Lyase (dRPase) activity of mouse embryonic fibroblast lysates on 3′-32P-15; assay type: biochemical; details: for Rate of product formation: inhibitor + (18, 50 μM), 32 μg protein
# [5] = Conversion of bisacetate proinhibitor to 3a in DU145 lysate (TLC analysis); assay type: in vitro ADME
smiles,measurement,setting,value
COc1cc(Cl)c(/C=N/OC2C[C@H](n3cc(C)c(=O)[nH]c3=O)O[C@@H]2COP(=O)(OC)OCC2CC(O)OC2O)c(Cl)c1O (stereo partly shown) [2a],effect on Pol β activity in strand displacement assay,Pol β,comparable inhibition activity as 1a
COc1cc(Cl)c(/C=N/OC2C[C@H](n3cc(C)c(=O)[nH]c3=O)O[C@@H]2COP(=O)(O)OCC2CC(O)OC2O)c(Cl)c1O (stereo partly shown) [3a],effect on Klenow fragment's activity,[1],no effect
same,DU145 cells surviving treatment,[2],12%
same,lyase activity remaining,[3]; 150 μM,more than 30%
COc1cc(Cl)c(/C=N/OC2C[C@H](n3cc(C)c(=O)[nH]c3=O)O[C@@H]2COP(=O)(OC)OCCC=O)c(Cl)c1O (stereo partly shown) [compound 16],effect on Pol β lyase activity,Pol β lyase activity,had no effect
COc1cc(Cl)c(/C=N/OC2C[C@H](n3cc(C)c(=O)[nH]c3=O)O[C@@H]2COP(=O)(O)OCC2CC(OC(C)=O)OC2OC(C)=O)c(Cl)c1O (stereo partly shown) [compound 18],Rate of product formation,[4]; Pol β - lysate,5.5 ± 1.5 ×10^−1 % · min^−1
same,Rate of product formation,[4]; Pol β wt lysate,9.2 ± 2.4 ×10^−1 % · min^−1
same,reduction of lyase activity,"[4]; Pol β- cell lysates, 18 at 50 μM",less than 30%
same,Rate of product formation,[4]; Pol β/λ - lysate,11.0 ± 4.0 ×10^−1 % · min^−1
same,Rate of product formation,[4]; Pol λ - lysate,9.1 ± 2.3 ×10^−1 % · min^−1
same,Rate of product formation,"[4]; Pol λ wt lysate, aliquots at 2, 5, 10 min",12.4 ± 3.2 ×10^−1 % · min^−1
same,effect on lyase activity versus wild type cells,"[4]; cells lacking Pol λ (Pol λ-), p=0.05",statistically indistinguishable
same,effect on lyase activity versus Pol β- cells,[4]; double knock-out (Pol β-/Pol λ-) cells,within experimental error
same,reduction of the rate of the lyase reaction,"[4]; lysates from wild type cells, 18 at 50 μM",~2 fold
same,MMS concentration at and above which clear potentiation of cytotoxicity is seen,[2],≥ 0.2 mM
same,cell death,"[2]; 20 μM, proinhibitor alone",approximately 45%
same,DU145 cells surviving treatment,[2],approximately 0.01%
same,time for conversion of bisacetate to 3a,[5],≤ 5 min
same,inhibition of DU145 lysate lyase activity,[3]; 150 μM,Almost complete inhibition
same,preincubation time by which inactivation was complete,"[3]; 18 at 50 μM, preincubation varied 5-60 min",≤ 15 min
same,lyase activity inhibition compared with 3a,"[3]; 1 h preincubation, FIG. 11",significantly greater
same,effect on Pol β lyase activity,Pol β lyase activity,had no effect
